Consider seven compounds from patent publication US7307166B1, “Oxpurine nucleosides and their congeners, and acyl, derivatives thereof, for improvement of hematopoiesis” (Wellstat Therapeutics Corporation, priority 1987, dated 2007).

Test [1] concerns rabbits treated with cyclophosphamide. The conditions noted are these: rabbit, in vivo; cited from earlier work.
Test [2] relates to human myeloid leukemia cell line (HL-60). Particulars: incubation of HL-60 cells; cited from earlier work.
For test [3], the system named is Balb/C female mice. Put plainly: Hematopoietic recovery after cyclophosphamide in mice (spleen weight, blood cell counts). The class given is in vivo, mouse.
Test [4] deals with Balb/C female mice. Described as above. The class given is in vivo, mouse. The conditions noted are these: for Neutrophils / peripheral total white blood cells: Ex 37: day 7 after CP, 5 μmoles/mouse/day i.p. 6 days, vs saline. The procedure: Twenty-four hours later and each day thereafter for a total of 6 days, mice were given a 0.4 ml i.p. injection of either physiological saline (controls), guanine (5 μmoles/mouse/day), or guanosine (5 μmoles/mouse/day). On day 7 all 10 mice in each of the three groups were bled, and then sacrificed by cervical dislocation. Spleens were removed and weighed, and complete blood cell counts performed.
Twenty-four hours later and each day thereafter for a total of 6 days, mice were given a 0.4 ml i.p injection of either physiological saline (controls), Tween 80 (0.2%), guanosine (5 μmoles/mouse/day in 0.2% Tween 80), or 2.5 μmoles per mouse per day of one of the following acylated derivatives of guanosine in 0.2% Tween 80: triacetylguanosine, octanoylguanosine, lauroylguanosine, or palmitoylguanosine. On day 7 following CP administration all 10 animals from each of the 7 groups were bled, and then sacrificed by cervical dislocation. Spleens were removed and weighed, and complete blood counts performed.
Twenty-four hours later treatment was begun. Mice were given a 0.4 ml i.p. injection of either physiological saline (controls), Tween 80 (0.2%), or palmitoylguanosine (5 μmoles/mouse/day in 0.2% Tween 80). The timing of the treatments was varied within the groups. The control group was given saline on days 1-6. The mice receiving Tween 80 were treated either on days 1-4, 4-6 or 1-6. Palmitoylguanosine-treated mice were treated either on days 1-2, 1-4, 3-5, 4-6 or 1-6. If a group of mice received no Tween 80 or palmitoylguanosine on a given day, saline was administered by i.p. injection. Thus, there were 9 groups of 9 animals in all. On day 7 following CP administration all of the animals were bled and then sacrificed by cervical dislocation. Spleens were removed and weighed, and complete blood cell counts performed.
Twenty-four hours later and each day thereafter for a total of 6 days, mice were given a 0.4 ml i.p. injection of either physiological saline (controls), Tween 80 (0.5%), or one of three different doses of octanoylguanosine (0.5, 2.5, or 5 μmoles/mouse/day in 0.5% Tween 80). On day 7 following CP administration all 9 animals from each of the […] were bled and then sacrificed by cervical dislocation. Spleens were removed and weighed, and complete blood cell counts performed.
Twenty-four hours later and each day thereafter for a total of 6 days, mice were given a 0.4 ml i.p. injection of either physiological saline (controls), Tween 80 (0.5%), or octanoylguanosine (5.0 μmoles/mouse/day in 0.5% Tween 80). On day 7 following CP administration all 10 animals from each of the 3 groups were bled and then sacrificed by cervical dislocation. Spleens were removed, weighed, and fixed in 10% formalin for later histological examination. Complete blood cell counts were performed on the collected blood.
Twenty-four hours later and each day thereafter for a total of 6 days, mice were given a 0.4 ml i.p. injection of either physiological saline (controls), benzoylguanosine (2.5 μmoles/mouse/day in 0.2% Tween 80), or palmitoylguanosine (2.5 μmoles/mouse/day in 0.2% Tween 80). On days 7 and 10 following CP administration 8 animals from each of the 3 groups were bled and then were sacrificed by cervical dislocation. Spleens were removed and weighed, and complete blood cell counts performed.
Twenty four hours later and each day thereafter for a total of 4 or 6 days, mice were given a 0.4 ml i.p. injection of either physiological saline (controls), palmitoyldeoxyinosine (2.5 μmoles/mouse), or palmitoyl-xanthosine (2.5 μmoles/mouse). On days 5 and 7 following CP administration 6 of the 12 animals in each of the 3 groups were bled and then sacrificed by cervical dislocation. Spleens were removed and weighed, and complete blood cell counts performed.

Test [5] concerns Balb/C female mice. The test can be described thus: Hematopoietic recovery after 5-fluorouracil in mice. Type of test: in vivo, mouse. The procedure:
5-fluorouracil (5-FU) (150 mg/kg, i.p.) was administered to forty Balb/C female mice weighing approximately 20 grams each. Twenty-four hours later and each day thereafter for a total of 8 days, mice were given a 0.4 ml i.p. injection of either physiological saline (controls) or 5′-O-palmitoylguanosine (2.5 μmoles/mouse/day in 0.2% Tween 80). On days 7 and 14 following 5-FU administration half of the animals from each group were bled and then were sacrificed by cervical dislocation. Spleens were removed and weighed, and complete blood cells counts performed.
5-fluorouracil (5-FU) (150 mg/kg, i.p.) was administered to fifty-four Balb/C female mice weighing approximately 20 grams each. Twenty-four hours later and each day thereafter for a total of 7 days, mice were given a 0.4 ml i.p. injection of either physiological saline (controls) or palmitoylguanosine (2.5 μmoles/mouse/day in 0.2% Tween 80). On days 8, 10 and 12 following administration of 5-FU nine animals from each group were bled and then sacrificed by cervical dislocation. Spleens were removed and weighed, and complete blood cell counts performed.
Twenty-eight female Balb/C mice weighing approximately 20 grams each received a 0.4 ml i.p. injection of either physiological saline (controls), or palmitoyldeoxyguanosine (1 μmole/mouse) daily for three days. On the fourth day 5-fluorouracil (5-FU) (150 mg/kg, i.p.) was administered to all 28 of the animals. On days 5, 8 and 11 following 5-FU administration 4 (day 5) or 5 (days 8 and 11) animals from both groups were bled and then sacrificed by cervical dislocation. Spleens were removed and weighed, and complete blood cell counts performed. […]
Sixty female Balb/C mice weighing approximately 20 grams each were distributed into one of five treatment groups and treated once daily for three days by i.p. injection with 3′,5′-O—N^2-tripalmitoyl-2′-deoxyguanosine at a dose of either 1, 5, 10, 25, or 50 mg/kg/treatment in a Tween-DMSO vehicle (0.2% Tween-80 and 7.5% DMSO in physiological saline). Injection volume was 0.4 ml. An additional twelve animals (controls) received vehicle alone on those three days. On the fourth day all seventy-two animals received a single i.p. injection of 5-fluorouracil (5-FU) at a dose of 150 mg/kg. On days 7 and 10 following 5-FU administration six mice from each group were bled and then sacrificed by cervical dislocation. Six untreated mice were also bled and sacrificed to provide data on normal (basal) values. Spleens were removed and weighed, and complete blood cell counts performed.

The next test deals with F344 male rats. Put plainly: Recovery of blood cell counts in rats after cyclophosphamide. The class given is in vivo, rat. The procedure:
Cyclophosphamide (CP) (40 mg/kg, i.p.) was administered to 16 F344 male rats weighing approximately 200 grams each. Twenty-four hours later and each day thereafter rats were given a 0.5 ml i.p. injection of either physiological saline (controls), or palmitoyldeoxyguanosine at a dose of 10 μmoles/rat. On days 5, 7 and 10 following CP administration all 8 animals from both groups were bled and complete blood cell counts performed. On day 10 all of the rats were sacrificed and their spleens removed and weighed.

For test [6], the system named is Normal Balb/C female mice. Put plainly: Hematopoiesis in normal mice. Type of test: in vivo, mouse. The conditions noted are these: Ex 56: fifth day. The procedure: Normal, otherwise untreated, female Balb/C mice weighing approximately 20 grams each received a total of 4 or 9 0.4 ml intraperitoneal injections (one per day) of either Tween-80 (0.2%) (controls), palmitoylguanosine ([…]), or palmitoyldeoxyinosine ([…]). Twenty-four hours after the 4th or 9th treatment, groups of 5 or 6 animals from each of the 3 groups were bled and then sacrificed by cervical dislocation. Spleens were removed and weighed, and complete blood cell counts performed.
Normal Balb/C female mice weighing approximately 20 grams each were given a daily 0.4 ml i.p. injection of either physiological saline (controls), palmitoylguanosine (2.6 μmoles/mouse), palmitoyldeoxyguanosine (2.6 μmoles/mouse), monopalmitoylguanosine 2′,3′-acyclic dialcohol (2.6 μmoles/mouse), and palmitoyl-8-bromoguanosine (2.6 μmoles/mouse) for 4 days. On the fifth day all 3 animals in each of the 5 groups were bled and then sacrificed by cervical dislocation. Spleens were removed and weighed, and complete blood cell counts performed. Femoral bone marrow from each mouse was collected and a differential cell count performed on marrow smears.

The subject of test [7] is mouse bone marrow cells in culture. Particulars: under stimulatory influence of serum from endotoxin-treated mice; cited from earlier work.
[8] abbreviates: Ex 37: day 7 after CP 275 mg/kg i.p., 5 μmoles/mouse/day i.p. 6 days, vs saline.
Where [9] appears, read: Ex 57: day 8 after 5-FU, pretreatment.
Setting [10] is: Ex 57: day 11 after 5-FU, pretreatment.
[11] abbreviates: Ex 51: day 5 after CP, 2 μmoles/mouse.
[12] abbreviates: Ex 52: days 5 and 7 after CP, 0.2-2.0 μmoles/mouse, except 0.2 on day 5.
The mark [13] stands for this setting: Ex 53: day 5 after CP, palmitoylguanosine 2.0, palmitoyldeoxyguanosine 1.0 μmoles/mouse.
Where [14] appears, read: Ex 53: day 7 after CP, palmitoylguanosine 1.0 and 2.0, palmitoyldeoxyguanosine 1.0 μmoles/mouse.

As to polyadenosine monophosphate, in test [1], the leukocyte formation entry is reported as “failed to stimulate”.
Take `Nc1nc2nc[nH]c2c(=O)[nH]1` [guanine]: the “induced maturation into functional neutrophils” value in test [2] is recorded as “prevented”. Moreover, the spleen weight result in the test on Balb/C female mice [3] (setting [8]) is listed as “significantly heavier spleens”. Besides, in the test with Balb/C female mice [4], the Neutrophils result is “significantly more” and the “peripheral total white blood cells” value is given as “significantly more”.
Regarding “Palmitoyl-2′-Deoxyguanosine [palmitoyldeoxyguanosine]”, the platelet counts result in the test with Balb/C female mice [5] (Ex 57: day 5 after 5-FU, pretreatment 1 μmole/mouse i.p. daily 3 days) is listed as “significantly elevated”; in the test with Balb/C female mice [5] (setting [9]) it was “significantly higher”; in the test on Balb/C female mice [5] (setting [10]), “significantly higher”. Also, the total neutrophil counts result is “significantly higher” in the test with Balb/C female mice [5] (setting [9]); “significantly higher” with Balb/C female mice [5] (setting [10]); “significantly elevated” in the test with F344 male rats (days 5, 7 and 10 after CP, 10 μmoles/rat); “significantly elevated” in the test with Balb/C female mice [3] (setting [11]); “significantly elevated” with Balb/C female mice [3] (setting [12]); “significantly elevated” in the test with Balb/C female mice [3] (setting [13]). For the same compound, the total neutrophil counts result with Balb/C female mice [3] (setting [14]) was “significantly elevated”; in the test with Balb/C female mice [3] (Ex 54: days 5 and 7 after CP, all 6 doses 0.04-0.8 μmoles/mouse), “significantly elevated”. Also, the spleen weight result in the test with Balb/C female mice [5] (Ex 57: day 8 after 5-FU, pretreatment 1 μmole/mouse) is on record as “significantly higher”; in the test on F344 male rats (day 10 after CP, 10 μmoles/rat), “significantly elevated”; in test [6] (2.6 μmoles/mouse i.p. daily 4 days), “significantly elevated”; with Balb/C female mice [3] (Ex 51: day 5 after CP, 2 μmoles/mouse i.p. daily, vs Tween-80), “significantly elevated”; in the test with Balb/C female mice [3] (Ex 52: days 5 and 7 after CP, 0.2, 0.4, 1.0, 2.0 μmoles/mouse, except 0.2 on day 5) it was “significantly elevated”; with Balb/C female mice [3] (setting [13]), “significantly elevated”. Also, the spleen weight entry was “significantly elevated” with Balb/C female mice [3] (setting [14]); “significantly elevated” in the test on Balb/C female mice [3] (Ex 54: day 5 after CP, doses of 0.2 μmoles/mouse or greater); “significantly elevated” in the test with Balb/C female mice [3] (Ex 54: day 7 after CP, all doses except 0.04 μmoles/mouse). Besides, the lymphocyte counts entry in the test with Balb/C female mice [5] (setting [10]) was “significantly higher”. Besides, in the test with Balb/C female mice [5] (setting [10]), the spleen weights entry was “significantly higher”. Moreover, the “total white blood cell counts” value in the test on Balb/C female mice [5] (setting [10]) is “significantly higher”. Also, the Lymphocytes result in the test on F344 male rats (day 10 after CP, 10 μmoles/rat) is on record as “significantly elevated”. Further, in the test with F344 male rats (day 10 after CP, 10 μmoles/rat), the Platelets result is recorded as “significantly elevated”. The “white blood cell counts” value with F344 male rats (days 5, 7 and 10 after CP 40 mg/kg, 10 μmoles/rat i.p. daily) is given as “significantly elevated”; in the test with Balb/C female mice [3] (setting [11]), “significantly elevated”; in the test on Balb/C female mice [3] (setting [12]), “significantly elevated”; in the test with Balb/C female mice [3] (setting [13]), “significantly elevated”; in the test with Balb/C female mice [3] (setting [14]) it was “significantly elevated”; with Balb/C female mice [3] (Ex 54: day 5 after CP, doses of 0.4 μmoles/mouse or greater), “significantly elevated”. For the same compound, the “white blood cell counts” value with Balb/C female mice [3] (Ex 54: day 7 after CP, all doses 0.04-0.8 μmoles/mouse) is reported as “statistically significant differences”. Moreover, the “number of myelocytes (femoral bone marrow)” value in test [6] (2.6 μmoles/mouse daily 4 days) was “significantly greater”. For the same compound, the “potency in elevating spleen weight and cell counts vs palmitoylguanosine” value in the test on Balb/C female mice [3] (Ex 53: vs the same or a 2-fold greater dose of palmitoylguanosine) is listed as “more potent”.
On to `OC[C@H]1O[C@@H](n2cnc3c(O)ncnc32)[C@H](O)[C@@H]1O` [inosine, reference compound], for which, in test [2], the “induced maturation into functional neutrophils” value is recorded as “no effect”.
In the case of `Nc1nc2c(ncn2[C@@H]2O[C@H](CO)[C@@H](O)[C@H]2O)c(=O)[nH]1` [guanosine], the “induced maturation into functional neutrophils” value in test [2] was “prevented”. The spleen weight entry with Balb/C female mice [3] (setting [8]) is recorded as “significantly heavier spleens”. In addition, in the test with Balb/C female mice [4], the Neutrophils entry is on record as “significantly more” and the “peripheral total white blood cells” value was “significantly more”. In addition, the spleen weight result in the test with Balb/C female mice [4] (Ex 38: day 7 after CP, guanosine 5, acyl derivatives 2.5 μmoles/mouse/day in 0.2% Tween 80 i.p. 6 days, Tween 80 0.2%) was “No significant difference”.
As for `Nc1nc2c(ncn2[C@@H]2O[C@@H]3COP(=O)(O)O[C@H]3[C@H]2O)c(=O)[nH]1` [cGMP, 3′,5′-cyclic guanosine monophosphate], the “number of colonies formed” value in test [7] was “increase”.
As for `Nc1nc2c(ncn2[C@@H]2O[C@H](COP(=O)(O)O)[C@@H](O)[C@H]2O)c(=O)[nH]1` [5′-guanosine monophosphate], in test [7], the “number of colonies formed” value was “inactive”.
